In ChEMBL document CHEMBL4507319 (2021):

Columns and labels:
[1] = target: T1, cAMP-dependent protein kinase catalytic subunit PRKX (Homo sapiens) (UniProt P51817); test: PrKX(h) Eurofins kinase panel; conditions: Compound concentration 1.0 uM
T1 sequence (whole entry): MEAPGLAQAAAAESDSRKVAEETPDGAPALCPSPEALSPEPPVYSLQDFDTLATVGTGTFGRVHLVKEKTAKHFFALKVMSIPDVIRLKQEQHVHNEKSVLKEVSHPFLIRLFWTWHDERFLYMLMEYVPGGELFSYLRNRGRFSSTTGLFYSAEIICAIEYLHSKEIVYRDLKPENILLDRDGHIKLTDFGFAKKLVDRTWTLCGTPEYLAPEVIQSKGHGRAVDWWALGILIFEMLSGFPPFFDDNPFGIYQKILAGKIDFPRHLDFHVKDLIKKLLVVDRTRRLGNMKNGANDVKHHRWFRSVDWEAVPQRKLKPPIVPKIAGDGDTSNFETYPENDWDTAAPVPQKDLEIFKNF

[2] = target: T2, Serine/threonine-protein kinase Nek9 (Homo sapiens) (UniProt Q8TD19); test: NEK9(h) Eurofins kinase panel; conditions: Compound concentration 1.0 uM
T2 sequence (whole entry): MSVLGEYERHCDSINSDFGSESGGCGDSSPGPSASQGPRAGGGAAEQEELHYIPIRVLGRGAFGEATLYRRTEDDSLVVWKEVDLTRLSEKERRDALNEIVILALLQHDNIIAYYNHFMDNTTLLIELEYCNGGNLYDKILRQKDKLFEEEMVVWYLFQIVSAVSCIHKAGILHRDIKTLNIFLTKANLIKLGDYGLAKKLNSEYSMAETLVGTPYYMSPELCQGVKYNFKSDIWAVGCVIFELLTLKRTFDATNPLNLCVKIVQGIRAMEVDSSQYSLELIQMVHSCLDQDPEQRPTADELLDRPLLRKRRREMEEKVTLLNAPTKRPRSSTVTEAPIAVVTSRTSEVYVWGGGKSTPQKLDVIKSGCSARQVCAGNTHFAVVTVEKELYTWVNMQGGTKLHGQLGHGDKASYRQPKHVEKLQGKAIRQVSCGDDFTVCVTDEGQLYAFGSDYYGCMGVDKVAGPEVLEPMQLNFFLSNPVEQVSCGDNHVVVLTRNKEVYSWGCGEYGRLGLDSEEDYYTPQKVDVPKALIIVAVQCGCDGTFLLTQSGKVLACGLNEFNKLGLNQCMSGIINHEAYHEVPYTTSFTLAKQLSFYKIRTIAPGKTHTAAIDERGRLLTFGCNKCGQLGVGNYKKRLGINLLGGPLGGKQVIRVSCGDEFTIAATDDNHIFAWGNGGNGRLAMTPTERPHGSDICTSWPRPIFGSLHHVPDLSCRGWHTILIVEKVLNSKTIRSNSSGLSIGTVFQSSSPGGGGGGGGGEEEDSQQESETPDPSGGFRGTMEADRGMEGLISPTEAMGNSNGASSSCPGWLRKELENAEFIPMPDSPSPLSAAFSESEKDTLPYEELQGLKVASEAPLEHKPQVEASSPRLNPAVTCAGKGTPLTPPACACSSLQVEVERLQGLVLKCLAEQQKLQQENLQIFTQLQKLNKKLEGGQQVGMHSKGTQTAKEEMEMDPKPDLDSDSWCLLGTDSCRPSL

[3] = target: Serine/threonine-protein kinase PAK 6 (Homo sapiens) (UniProt Q9NQU5); test: PAK6(h) Eurofins kinase panel; conditions: Compound concentration 1.0 uM
Serine/threonine-protein kinase PAK 6 (Homo sapiens), sequence (Q9NQU5 whole entry, looked up): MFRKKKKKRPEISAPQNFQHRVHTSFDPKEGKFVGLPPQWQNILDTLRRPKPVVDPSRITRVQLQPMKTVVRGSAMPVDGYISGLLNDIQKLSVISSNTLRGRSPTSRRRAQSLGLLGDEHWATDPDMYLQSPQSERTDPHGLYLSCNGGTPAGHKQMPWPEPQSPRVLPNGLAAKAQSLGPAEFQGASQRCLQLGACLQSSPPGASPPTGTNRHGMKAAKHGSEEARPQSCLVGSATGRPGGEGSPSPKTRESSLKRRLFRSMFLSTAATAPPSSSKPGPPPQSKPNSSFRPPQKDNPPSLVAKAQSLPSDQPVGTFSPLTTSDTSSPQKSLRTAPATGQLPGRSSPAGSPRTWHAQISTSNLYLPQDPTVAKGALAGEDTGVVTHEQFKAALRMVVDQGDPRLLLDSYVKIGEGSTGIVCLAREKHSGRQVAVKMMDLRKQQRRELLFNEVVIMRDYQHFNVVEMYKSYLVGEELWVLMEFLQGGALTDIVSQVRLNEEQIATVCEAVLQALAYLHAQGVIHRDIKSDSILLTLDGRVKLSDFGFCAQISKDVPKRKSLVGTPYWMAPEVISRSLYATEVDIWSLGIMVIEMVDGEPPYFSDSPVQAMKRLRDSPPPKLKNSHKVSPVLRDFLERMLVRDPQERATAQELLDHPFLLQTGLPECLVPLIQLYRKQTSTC

[4] = target: T3, MAP kinase-activated protein kinase 5 (Homo sapiens) (UniProt Q8IW41); test: PRAK(h) Eurofins kinase panel; conditions: Compound concentration 1.0 uM
T3 sequence (whole entry): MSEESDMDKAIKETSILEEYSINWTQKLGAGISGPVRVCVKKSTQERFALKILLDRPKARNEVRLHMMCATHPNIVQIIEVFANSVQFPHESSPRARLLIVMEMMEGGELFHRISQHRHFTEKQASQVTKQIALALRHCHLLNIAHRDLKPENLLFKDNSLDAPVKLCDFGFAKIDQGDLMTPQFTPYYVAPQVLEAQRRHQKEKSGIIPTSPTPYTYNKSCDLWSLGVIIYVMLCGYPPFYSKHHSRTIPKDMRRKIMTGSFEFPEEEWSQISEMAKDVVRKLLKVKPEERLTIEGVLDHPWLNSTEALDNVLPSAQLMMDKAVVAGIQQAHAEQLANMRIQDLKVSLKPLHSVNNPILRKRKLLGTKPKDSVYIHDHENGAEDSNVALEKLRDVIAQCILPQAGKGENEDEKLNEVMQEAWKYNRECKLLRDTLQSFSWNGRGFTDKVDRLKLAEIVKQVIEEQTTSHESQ

Raji = test: RAJI cell line Proliferation assay; type: functional, Homo sapiens; conditions: time 3 day
[5] = target: T4, Dual specificity mitogen-activated protein kinase kinase 6 (Homo sapiens) (UniProt P52564); test: MKK6(h) Eurofins kinase panel; conditions: Compound concentration 1.0 uM
T4 sequence (whole entry): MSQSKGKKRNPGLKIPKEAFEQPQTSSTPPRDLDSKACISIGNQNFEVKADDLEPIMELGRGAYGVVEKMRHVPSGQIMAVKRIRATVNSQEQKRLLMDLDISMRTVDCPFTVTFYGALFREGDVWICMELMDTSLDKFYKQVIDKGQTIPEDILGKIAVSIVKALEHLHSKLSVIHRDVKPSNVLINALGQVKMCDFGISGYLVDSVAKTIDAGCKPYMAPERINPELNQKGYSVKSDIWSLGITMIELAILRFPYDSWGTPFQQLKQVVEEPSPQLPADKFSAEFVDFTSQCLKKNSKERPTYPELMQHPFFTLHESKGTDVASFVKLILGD

OCI-Ly7 = test: Oci-Ly-7 cell line Proliferation assay; type: functional, Homo sapiens; conditions: time 3 day
[6] = target: T5, Calcium/calmodulin-dependent protein kinase type IV (Homo sapiens) (UniProt Q16566); test: CaMKIV(h) Eurofins kinase panel; conditions: Compound concentration 1.0 uM
T5 sequence (whole entry): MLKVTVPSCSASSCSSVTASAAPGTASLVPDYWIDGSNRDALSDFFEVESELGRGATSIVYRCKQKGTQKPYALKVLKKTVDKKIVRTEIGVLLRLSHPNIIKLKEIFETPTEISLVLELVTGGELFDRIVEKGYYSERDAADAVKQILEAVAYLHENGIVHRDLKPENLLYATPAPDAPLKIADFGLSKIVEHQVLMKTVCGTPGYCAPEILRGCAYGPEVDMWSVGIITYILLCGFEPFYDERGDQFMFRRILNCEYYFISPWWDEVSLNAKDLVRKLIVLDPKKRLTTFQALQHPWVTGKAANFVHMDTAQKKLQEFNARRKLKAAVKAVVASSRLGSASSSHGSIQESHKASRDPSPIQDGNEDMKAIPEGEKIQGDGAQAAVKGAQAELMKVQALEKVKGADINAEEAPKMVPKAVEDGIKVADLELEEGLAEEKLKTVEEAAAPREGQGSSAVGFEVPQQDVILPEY

[7] = target: Phosphatidylinositol 4-phosphate 3-kinase C2 domain-containing subunit alpha (Homo sapiens) (UniProt O00443); test: PI3KC2a(h) Eurofins kinase panel; conditions: Compound concentration 1.0 uM
Phosphatidylinositol 4-phosphate 3-kinase C2 domain-containing subunit alpha (Homo sapiens), sequence (O00443 whole entry, the tested form may be a part): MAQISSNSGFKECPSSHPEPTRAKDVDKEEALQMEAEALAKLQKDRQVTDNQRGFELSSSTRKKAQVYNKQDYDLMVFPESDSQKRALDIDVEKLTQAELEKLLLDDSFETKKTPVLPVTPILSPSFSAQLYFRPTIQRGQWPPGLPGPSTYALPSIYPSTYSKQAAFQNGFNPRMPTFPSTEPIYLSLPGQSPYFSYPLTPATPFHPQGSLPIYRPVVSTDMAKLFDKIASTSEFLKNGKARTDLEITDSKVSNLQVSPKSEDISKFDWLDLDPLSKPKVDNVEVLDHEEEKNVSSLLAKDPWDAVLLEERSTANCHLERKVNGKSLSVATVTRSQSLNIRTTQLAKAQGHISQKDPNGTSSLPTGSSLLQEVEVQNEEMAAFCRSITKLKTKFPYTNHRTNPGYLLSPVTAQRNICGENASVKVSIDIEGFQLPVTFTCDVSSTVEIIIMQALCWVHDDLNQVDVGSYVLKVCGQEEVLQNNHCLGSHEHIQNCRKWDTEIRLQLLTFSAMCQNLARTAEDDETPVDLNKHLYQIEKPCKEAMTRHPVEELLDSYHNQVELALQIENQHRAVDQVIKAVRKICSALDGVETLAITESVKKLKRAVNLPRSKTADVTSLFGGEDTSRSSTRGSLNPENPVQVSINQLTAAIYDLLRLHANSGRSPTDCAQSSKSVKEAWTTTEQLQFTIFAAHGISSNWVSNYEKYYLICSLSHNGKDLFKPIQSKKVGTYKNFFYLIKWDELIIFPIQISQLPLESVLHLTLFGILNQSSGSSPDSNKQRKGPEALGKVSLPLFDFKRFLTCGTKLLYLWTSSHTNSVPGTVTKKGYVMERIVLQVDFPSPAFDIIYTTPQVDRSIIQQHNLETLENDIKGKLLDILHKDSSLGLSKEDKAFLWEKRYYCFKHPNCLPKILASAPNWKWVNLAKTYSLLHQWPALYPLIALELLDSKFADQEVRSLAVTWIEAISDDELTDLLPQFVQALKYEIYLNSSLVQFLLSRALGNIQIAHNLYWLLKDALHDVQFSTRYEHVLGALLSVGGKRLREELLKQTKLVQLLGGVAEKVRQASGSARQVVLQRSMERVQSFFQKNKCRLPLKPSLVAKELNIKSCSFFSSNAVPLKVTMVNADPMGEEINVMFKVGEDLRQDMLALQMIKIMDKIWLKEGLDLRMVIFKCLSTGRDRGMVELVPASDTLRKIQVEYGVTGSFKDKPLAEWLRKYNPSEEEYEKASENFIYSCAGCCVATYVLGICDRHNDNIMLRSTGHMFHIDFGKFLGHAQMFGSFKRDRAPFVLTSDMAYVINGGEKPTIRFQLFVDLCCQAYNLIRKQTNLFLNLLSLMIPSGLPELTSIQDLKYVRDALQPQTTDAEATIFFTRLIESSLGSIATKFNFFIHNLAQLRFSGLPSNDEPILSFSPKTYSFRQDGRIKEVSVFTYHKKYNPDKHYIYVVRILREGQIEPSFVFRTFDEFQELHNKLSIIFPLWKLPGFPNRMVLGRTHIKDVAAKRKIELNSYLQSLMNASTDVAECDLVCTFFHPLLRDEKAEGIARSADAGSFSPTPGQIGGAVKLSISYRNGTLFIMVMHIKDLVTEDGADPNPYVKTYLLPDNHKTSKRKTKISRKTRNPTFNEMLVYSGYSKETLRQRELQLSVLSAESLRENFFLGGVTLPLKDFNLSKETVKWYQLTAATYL

[8] = target: Serine/threonine-protein kinase PLK2 (Homo sapiens) (UniProt Q9NYY3); test: Snk(h) Eurofins kinase panel; conditions: Compound concentration 1.0 uM
Serine/threonine-protein kinase PLK2 (Homo sapiens), sequence (Q9NYY3 whole entry, looked up): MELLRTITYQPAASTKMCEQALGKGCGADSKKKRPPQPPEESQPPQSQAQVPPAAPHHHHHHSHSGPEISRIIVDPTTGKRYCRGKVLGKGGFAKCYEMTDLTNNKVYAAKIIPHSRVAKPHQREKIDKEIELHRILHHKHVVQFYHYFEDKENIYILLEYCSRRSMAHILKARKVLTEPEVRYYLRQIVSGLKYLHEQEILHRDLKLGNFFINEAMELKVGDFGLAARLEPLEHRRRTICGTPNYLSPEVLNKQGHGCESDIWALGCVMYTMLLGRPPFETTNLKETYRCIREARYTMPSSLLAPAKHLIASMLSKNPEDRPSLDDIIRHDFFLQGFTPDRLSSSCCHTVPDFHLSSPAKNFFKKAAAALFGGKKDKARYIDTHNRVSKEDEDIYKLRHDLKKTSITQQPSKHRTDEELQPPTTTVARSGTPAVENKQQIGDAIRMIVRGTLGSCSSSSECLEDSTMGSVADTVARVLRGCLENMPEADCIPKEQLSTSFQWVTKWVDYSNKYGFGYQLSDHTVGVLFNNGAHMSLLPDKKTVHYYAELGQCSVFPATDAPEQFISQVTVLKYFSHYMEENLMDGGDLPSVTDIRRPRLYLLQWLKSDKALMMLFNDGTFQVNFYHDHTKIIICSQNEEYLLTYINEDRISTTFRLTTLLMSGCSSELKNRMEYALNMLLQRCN

## CCc1ccccc1C(=O)Nc1n[nH]c2c(C)c(F)c(C3C(C#N)=C(C)N(C)C(C)=C3C#N)cc12 [BAY-3827]
[1]
  % residual kinase activity: 94%
[2]
  % residual kinase activity: 47%
[3]
  % residual kinase activity: 86%
[4]
  % residual kinase activity: 87%
Raji
  Cell Proliferation IC50: >33 µM
[5]
  % residual kinase activity: 94%
OCI-Ly7
  Cell Proliferation IC50: 12.2 µM
[6]
  % residual kinase activity: 111%
[7]
  % residual kinase activity: 103%
[8]
  % residual kinase activity: 100%
